Assay results: patent publication US9187472B2 (AbbVie Inc., priority 2012, dated 2015)

Key:
[1] = target: NAMPT (human, recombinant, C-terminally His-tagged) (Homo sapiens, UniProt P43490); assay: Time-Resolved Fluorescence Resonance Energy Transfer (TR-FRET) Binding Assay of NAMPT; conditions: without substrates; 6.8 nM NAMPT, 200 nM probe, 3 hours equilibration
Outline: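 Competitive binding against an Oregon Green 488 tracer (200 nM), 6.8 nM His-tagged enzyme, 1 nM Tb antibody, 2% DMSO, 3 h at RT. IC50 derived from TR-FRET ratios.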

NAMPT = NAMPT (Homo sapiens, UniProt P43490); assay: TR-FRET Binding Assay of NAMPT with PRPP; conditions: with 200 μM PRPP and 2.5 mM ATP; 2 nM NAMPT, 2 nM probe, 16 hours equilibration
Chain of NAMPT (P43490 whole entry): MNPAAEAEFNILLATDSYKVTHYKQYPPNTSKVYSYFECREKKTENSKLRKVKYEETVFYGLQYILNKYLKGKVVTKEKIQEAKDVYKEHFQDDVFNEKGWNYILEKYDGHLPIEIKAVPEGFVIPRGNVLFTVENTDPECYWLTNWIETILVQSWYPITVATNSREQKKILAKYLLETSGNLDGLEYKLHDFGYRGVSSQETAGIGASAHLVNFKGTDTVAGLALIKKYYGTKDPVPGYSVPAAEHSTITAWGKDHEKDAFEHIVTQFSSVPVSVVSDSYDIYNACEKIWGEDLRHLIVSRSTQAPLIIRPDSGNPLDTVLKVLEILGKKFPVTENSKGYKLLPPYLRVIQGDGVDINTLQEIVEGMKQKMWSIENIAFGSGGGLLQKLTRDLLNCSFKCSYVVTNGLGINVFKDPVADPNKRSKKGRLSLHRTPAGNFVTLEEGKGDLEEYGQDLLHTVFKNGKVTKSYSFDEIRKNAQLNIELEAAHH
Outline: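 Read-out is TR-FRET after a 16 h equilibration allowing possible compound modification by the enzyme. Final mix: 2 nM NAMPT, 2 nM probe, 1 nM Tb-anti-His antibody, 200 μM PRPP, 2.5 mM ATP, 2% DMSO.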

PC3 cells = assay: NAMPT Cell Proliferation Assay; type: cell-based; conditions: Homo sapiens, PC-3, 120 h, 5 days incubation, cell viability by Cell Titer Glo
Outline: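 PC3 cells were plated at 500 cells/well in RPMI with 10% heat-inactivated FBS, left to attach overnight, then given compounds in 10-fold dilutions from 10 μM to 1×10^−5 μM. After 5 days at 37° C and 5% CO2, viability was read by luminescence and IC50s came from sigmoidal fits of percent inhibition.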

Chain of NAMPT (human, recombinant, C-terminally His-tagged) (P43490 whole entry): as above

| Structure (SMILES) | IC50 [1] [nM] | IC50 (NAMPT) [nM] | IC50 (PC3 cells) [nM] |
| --- | --- | --- | --- |
| O=C(NCc1ccn2ccnc2c1)c1ccc(O[C@H]2CCN(C(=O)[C@@H]3CCCO3)C2)cc1 [Example 341, N-(imidazo[1,2-a]pyridin-7-ylmethyl)-4-({(3S)-1-[(2S)-tetrahydrofuran-2-ylcarbonyl]pyrrolidin-3-yl}oxy)benzamide] | > 10000 | 0.719 | 8300 |
| O=C(NCc1ccn2ccnc2c1)c1ccc(C2CCN(C(=O)[C@H]3CCOC3)C2)cc1 (stereo partly drawn) [Example 375, N-(imidazo[1,2-a]pyridin-7-ylmethyl)-4-{1-[(3S)-tetrahydrofuran-3-ylcarbonyl]pyrrolidin-3-yl}benzamide] | 986 | 0.241 | > 10000 |
| O=C(Nc1ccc(NC(=O)C2CCOCC2)cc1)Nc1ccc2nccn2c1 [Example 46] | 773 | 0.318 | 6280 |
| O=C(NCc1ccc2nccn2c1)c1ccc(OC2CCN(C(=O)C3CC3)CC2)cc1 [Example 161, 4-{[1-(cyclopropylcarbonyl)piperidin-4-yl]oxy}-N-(imidazo[1,2-a]pyridin-6-ylmethyl)benzamide] | 1310 | 2.89 | 635 |
| COCCOCC(=O)N1CCC(CCCCNC(=O)Nc2ccc3nccn3c2)CC1 [Example 70, 1-imidazo[1,2-a]pyridin-6-yl-3-(4-{1-[(2-methoxyethoxy)acetyl]piperidin-4-yl}butyl)urea] | 710 | 0.616 | 27.8 |
| O=C(NCc1ccc2nccn2c1)c1ccc(C2=CCN(C(=O)CC3CCOCC3)CC2)cc1 [Example 93, N-(imidazo[1,2-a]pyridin-6-ylmethyl)-4-[1-(tetrahydro-2H-pyran-4-ylacetyl)-1,2,3,6-tetrahydropyridin-4-yl]benzamide] | 389 | 1.39 | 7.13 |
| O=C(CC1CCOCC1)Nc1ccc(C(=O)NCc2ccn3ccnc3c2)cc1 [Example 208, N-(imidazo[1,2-a]pyridin-7-ylmethyl)-4-[(tetrahydro-2H-pyran-4-ylacetyl)amino]benzamide] | 404 | 0.169 | 84.9 |
| O=C(NCc1ccn2ccnc2c1)c1ccc(C2CCN(C(=O)c3ccc(OC(F)(F)F)cc3)CC2)cc1 [Example 704, N-(imidazo[1,2-a]pyridin-7-ylmethyl)-4-{1-[4-(trifluoromethoxy)benzoyl]piperidin-4-yl}benzamide] | 503 | 0.777 | 91.5 |
| O=C(NCc1ccc2nccn2c1)c1ccc(OC2CCN(C(=O)[C@@H]3CCCO3)CC2)cc1 [Example 164, N-(imidazo[1,2-a]pyridin-6-ylmethyl)-4-({1-[(2S)-tetrahydrofuran-2-ylcarbonyl]piperidin-4-yl}oxy)benzamide] | 2460 | 3.46 | 101 |
| CCCC(=O)N1CCC(Oc2ccc(C(=O)NCc3ccc4nccn4c3)cc2)CC1 [Example 168, 4-[(1-butanoylpiperidin-4-yl)oxy]-N-(imidazo[1,2-a]pyridin-6-ylmethyl)benzamide] | 1110 | 0.951 | 208 |
| CC[C@H](C)C(=O)N1CC[C@H](Oc2ccc(C(=O)NCc3ccn4ccnc4c3)cc2)C1 [Example 321, N-(imidazo[1,2-a]pyridin-7-ylmethyl)-4-({(3S)-1-[(2S)-2-methylbutanoyl]pyrrolidin-3-yl}oxy)benzamide] | 3160 | 0.792 | 1130 |
| CC(=O)N1CCC(Oc2ccc(C(=O)NCc3ccn4ccnc4c3)cc2)CC1 [Example 411, 4-[(1-acetylpiperidin-4-yl)oxy]-N-(imidazo[1,2-a]pyridin-7-ylmethyl)benzamide] | 1870 | 0.556 | 4720 |
| O=C(NCc1ccn2ccnc2c1)Nc1ccc(O[C@@H]2CCN(C(=O)c3ccc(C(F)(F)F)cc3)C2)cc1 [Example 693, 1-(imidazo[1,2-a]pyridin-7-ylmethyl)-3-[4-({(3R)-1-[4-(trifluoromethyl)benzoyl]pyrrolidin-3-yl}oxy)phenyl]urea] | 781 | 1.42 | 652 |

The next compounds have a lower IC50 [1] than those just listed; values first:

| IC50 [1] [nM] | IC50 (NAMPT) [nM] | IC50 (PC3 cells) [nM] | Structure (SMILES) |
| --- | --- | --- | --- |
| 304 | 0.33 | 36.3 | O=C(NCc1ccn2ccnc2c1)Nc1ccc(OC2CN(C(=O)[C@@H]3CCCO3)C2)cc1 [Example 432, 1-(imidazo[1,2-a]pyridin-7-ylmethyl)-3-[4-({1-[(2S)-tetrahydrofuran2-ylcarbonyl]azetidin-3-yl}oxy)phenyl]urea] |
| 297 | 0.535 | 32.4 | O=C(NCc1ccn2ccnc2c1)Nc1ccc(-c2cnn(CC3CCCO3)c2)cc1 (stereo not drawn) [Example 674, 1-(imidazo[1,2-a]pyridin-7-ylmethyl)-3-{4-[1-(tetrahydrofuran-2-ylmethyl)-1H-pyrazol-4-yl]phenyl}urea] |
| 282 | 0.693 | 70.9 | O=C(NCc1ccn2ccnc2c1)c1ccc(C2CN(C(=O)C3CCCCC3)C2)cc1 [Example 660, 4-[1-(cyclohexylcarbonyl)azetidin-3-yl]-N-(imidazo[1,2-a]pyridin-7-ylmethyl)benzamide] |
| 251 | 0.534 | 71.9 | O=C(NCc1ccn2ccnc2c1)Nc1ccc(OC2CCN(C(=O)c3cccc(F)c3)CC2)cc1 [Example 726, 1-(4-{[1-(3-fluorobenzoyl)piperidin-4-yl]oxy}phenyl)-3-(imidazo[1,2-a]pyridin-7-ylmethyl)urea] |
| 215 | 0.713 | 58.1 | O=C(NCc1ccn2ccnc2c1)c1ccc(C2CN(C(=O)c3ccco3)C2)cc1 [Example 639, 4-[1-(furan-2-ylcarbonyl)azetidin-3-yl]-N-(imidazo[1,2-a]pyridin-7-ylmethyl)benzamide] |
| 169 | 0.67 | 77.7 | O=C(NCc1ccn2ccnc2c1)Nc1ccc(O[C@@H]2CCN(C(=O)c3ccc(F)cc3)C2)cc1 [Example 691, 1-(4-{[(3R)-1-(4-fluorobenzoyl)pyrrolidin-3-yl]oxy}phenyl)-3-(imidazo[1,2-a]pyridin-7-ylmethyl)urea] |
| 135 | 2 | 8.46 | O=C(NCc1ccc2nccn2c1)c1ccc(C2=CCN(C(=O)c3ccccc3)CC2)cc1 [Example 104, 4-(1-benzoyl-1,2,3,6-tetrahydropyridin-4-yl)-N-(imidazo[1,2-a]pyridin-6-ylmethyl)benzamide] |
| 118 | 0.566 | 12.4 | CC(C)CC1CCCN1C(=O)c1ccc(C(=O)NCc2ccn3ccnc3c2)s1 (stereo not drawn) [Example 824, N-(imidazo[1,2-a]pyridin-7-ylmethyl)-5-{[2-(2-methylpropyl)pyrrolidin-1-yl]carbonyl}thiophene-2-carboxamide] |
| 67 | 0.226 | 11.5 | O=C(NCc1ccn2ccnc2c1)c1ccc(-c2cnn(C3CCS(=O)(=O)C3)c2)s1 (stereo not drawn) [Example 296, 5-[1-(1,1-dioxidotetrahydrothiophen-3-yl)-1H-pyrazol-4-yl]-N-(imidazo[1,2-a]pyridin-7-ylmethyl)thiophene-2-carboxamide] |
| 65.8 | 1.6 | 9.27 | CC(C)S(=O)(=O)N1CCC(c2ccc(C(=O)NCc3cn4ccnc4cn3)cc2)CC1 [Example 817, N-(imidazo[1,2-a]pyrazin-6-ylmethyl)-4-[1-(propan-2-ylsulfonyl)piperidin-4-yl]benzamide] |
| 63 | 0.482 | 5.72 | O=C(NCc1ccc2nccn2c1)c1ccc(-c2cnn(CC3CCOC3)c2)s1 (stereo not drawn) [Example 200, N-(imidazo[1,2-a]pyridin-6-ylmethyl)-5-[1-(tetrahydrofuran-3-ylmethyl)-1H-pyrazol-4-yl]thiophene-2-carboxamide] |
| 33.1 | 0.266 | 1.59 | O=C(NCc1ccn2ccnc2c1)c1ccc(-c2cnn(CC3CCOCC3)c2)s1 [Example 265, N-(imidazo[1,2-a]pyridin-7-ylmethyl)-5-[1-(tetrahydro-2H-pyran-4-ylmethyl)-1H-pyrazol-4-yl]thiophene-2-carboxamide] |
| 16 | 1.32 | 7.21 | O=C(NCc1ccn2ccnc2c1)Nc1ccc(O[C@@H]2CCN(C(=O)c3ccccc3F)C2)cc1 [Example 689, 1-(4-{[(3R)-1-(2-fluorobenzoyl)pyrrolidin-3-yl]oxy}phenyl)-3-(imidazo[1,2-a]pyridin-7-ylmethyl)urea] |
| 15.6 | 0.705 | 0.435 | O=C(NCc1ccn2ccnc2c1)c1ccc(C2CCN(C(=O)c3ccccc3Cl)C2)s1 (stereo not drawn) [Example 757, 5-[1-(2-chlorobenzoyl)pyrrolidin-3-yl]-N-(imidazo[1,2-a]pyridin-7-ylmethyl)thiophene-2-carboxamide] |
| 9.99 | 0.169 | 1.79 | O=C(NCc1ccn2ccnc2c1)Nc1ccc(NS(=O)(=O)c2ccccc2-c2ccccc2)cc1 [Example 303, N-(4-{[(imidazo[1,2-a]pyridin-7-ylmethyl)carbamoyl]amino}phenyl)biphenyl-2-sulfonamide] |
